Nine compounds from US11986471B2, “Compounds and methods of use” (Tango Therapeutics, Inc., priority 2018, dated 2024) can be followed below.

Bounds are passed on as bounds.

For test [1], the target named is T1, PRMT5 (Homo sapiens, UniProt O14744).
T1 construct: purchased Viva (custom protein)
As to the kind of experiment: PRMT5 IC50 assay in the presence of SAM as cofactor. In kind it is biochemical. Summed up: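 For the SAM-containing format, dividing IC50 by 1.5 yields Ki; for the MTA-containing format the divisor is 13.5. A third format without cofactor gives IC50 alone.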

The subject of the next test is HAP1 MTAP-deleted. The experiment in a line: SDMA in-cell western assay, HAP1 MTAP-deleted cell line. In kind it is cell-based. Particulars: for IC50: Homo sapiens, HAP1 MTAP-deleted cell line; for MTAP Intact/Deleted Ratio: IC50 ratio HAP1 MTAP-intact / HAP1 MTAP-deleted. An outline of the steps: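 Symmetric dimethylarginine (SDMA) levels were measured by in-cell western in MTAP-null HAP1 cells, one half of an MTAP-isogenic pair whose partner line expresses endogenous MTAP. Compound potency is reported as IC50.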

The target in test [2] is T1, PRMT5. As to the kind of experiment: PRMT5 IC50 assay in the presence of MTA as cofactor. Type of test: biochemical. Particulars: for IC50: PRMT5, MTA as cofactor; for SAM/MTA Ratio: ratio between Ki in the presence of SAM and Ki in the presence of MTA. An outline of the steps:
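Ki conversion: SAM arm, Ki=IC50/1.5; MTA arm, Ki=IC50/13.5. No-cofactor arm reported as IC50 only. Selectivity expressed as Ki(SAM)/Ki(MTA).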

The next test relates to HAP1 MTAP-intact. As to the kind of experiment: SDMA in-cell western assay, HAP1 MTAP-intact cell line. Type of test: cell-based. As to conditions: Homo sapiens. Summed up: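 Symmetric dimethylarginine (SDMA) levels were measured by in-cell western in an isogenic HAP1 pair, one expressing endogenous MTAP and one MTAP-null, and IC50 values were derived for each line. Compounds whose IC50 ratio between the lines is 3-fold or more are classed as MTAP-selective.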

For test [3], the target named is T1, PRMT5. The experiment in a line: PRMT5 IC50 assay with no cofactor. As to conditions: read-out: No Co-factor IC50. Type of test: biochemical. Summed up:
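Cofactor-free, SAM and MTA formats; IC50 μM; Ki = IC50/1.5 for SAM, IC50/13.5 for MTA.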

T1 sequence (O14744 whole entry): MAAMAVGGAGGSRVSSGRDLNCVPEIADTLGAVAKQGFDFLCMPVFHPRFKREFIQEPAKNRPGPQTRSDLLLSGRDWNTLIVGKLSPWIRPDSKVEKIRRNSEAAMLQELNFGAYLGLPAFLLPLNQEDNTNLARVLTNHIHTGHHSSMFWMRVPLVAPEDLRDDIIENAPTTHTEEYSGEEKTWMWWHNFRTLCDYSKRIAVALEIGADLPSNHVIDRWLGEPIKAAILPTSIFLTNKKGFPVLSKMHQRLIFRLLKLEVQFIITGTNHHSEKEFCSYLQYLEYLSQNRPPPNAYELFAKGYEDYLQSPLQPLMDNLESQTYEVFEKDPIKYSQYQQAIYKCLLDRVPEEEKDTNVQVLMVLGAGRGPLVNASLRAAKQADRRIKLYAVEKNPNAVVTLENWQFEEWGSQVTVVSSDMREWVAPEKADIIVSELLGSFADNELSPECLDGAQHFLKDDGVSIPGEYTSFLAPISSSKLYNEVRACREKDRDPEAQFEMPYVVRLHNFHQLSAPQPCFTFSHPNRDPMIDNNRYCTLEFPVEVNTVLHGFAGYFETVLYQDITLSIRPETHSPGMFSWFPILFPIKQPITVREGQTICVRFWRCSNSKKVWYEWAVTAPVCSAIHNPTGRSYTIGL
T1 sequence (Q9BQA1 whole entry partner): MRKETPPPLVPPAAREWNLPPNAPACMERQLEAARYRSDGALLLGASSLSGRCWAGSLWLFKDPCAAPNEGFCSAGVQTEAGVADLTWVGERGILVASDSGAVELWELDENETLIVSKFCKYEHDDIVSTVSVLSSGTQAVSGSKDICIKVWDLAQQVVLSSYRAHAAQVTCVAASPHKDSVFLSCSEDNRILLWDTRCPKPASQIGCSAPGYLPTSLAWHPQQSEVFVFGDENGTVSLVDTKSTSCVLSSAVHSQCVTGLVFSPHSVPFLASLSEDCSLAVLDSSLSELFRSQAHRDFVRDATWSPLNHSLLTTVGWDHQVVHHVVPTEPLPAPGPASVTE

Consider `CCC(=O)N1CCN(c2cc(C(=O)NC[C@H](O)CN3CCc4cc(OCc5ocnc5C)ccc4C3)cc(NC3CCC3)n2)CC1` [Compound 389, 2-(cyclobutylamino)-N-[(2S)-2-hydroxy-3-{6-[(4-methyl-1,3-oxazol-5-yl)methoxy]-1,2,3,4-tetrahydroisoquinolin-2-yl}propyl]-6-(4-propanoylpiperazin-1-yl)pyridine-4-carboxamide], for which the concentration for half-maximal inhibition (IC50) (in general, the midpoint of a concentration-inhibition curve) on PRMT5 [1] is 50 to 500 nM; in the test with HAP1 MTAP-deleted, less than 1000 nM; on PRMT5 [2] it was 50 to 500 nM; in the test with HAP1 MTAP-intact, less than 1000 nM; at PRMT5 [3], 500 to 5000 nM. For the same compound, the “MTAP Intact/Deleted Ratio” value with HAP1 MTAP-deleted was “B* (an IC50 ratio greater than or equal to 3 fold but lower than 10 fold between the IC50 in the HAP1 MTAP-intact cell line and the HAP1 MTAP-deleted cell line)”. In addition, the “SAM/MTA Ratio” value on PRMT5 [2] was “A (a Ki ratio greater than or equal to 10 fold between the Ki in the presence of SAM and the Ki in the presence of MTA)”.

As for `CCCN(C)c1nc(NC2COC2)cc(C(=O)NC[C@H](O)CN2CCc3cc(OCc4ocnc4C)ccc3C2)n1` [Compound 390, N-[(2S)-2-hydroxy-3-{6-[(4-methyl-1,3-oxazol-5-yl)methoxy]-1,2,3,4-tetrahydroisoquinolin-2-yl}propyl]-2-[methyl(propyl)amino]-6-[(oxetan-3-yl)amino]pyrimidine-4-carboxamide], the half-inhibitory concentration (IC50) at PRMT5 [1] is 50 to 500 nM; with HAP1 MTAP-deleted, less than 1000 nM; on PRMT5 [2] it was 50 to 500 nM; in the test with HAP1 MTAP-intact, less than 1000 nM; at PRMT5 [3], 500 to 5000 nM. Also, the “MTAP Intact/Deleted Ratio” value in the test with HAP1 MTAP-deleted is “C* (an IC50 ratio of less than 3 fold between the IC50 in the HAP1 MTAP-intact cell line and the HAP1 MTAP-deleted cell line)”. For the same compound, the “SAM/MTA Ratio” value at PRMT5 [2] was “A (a Ki ratio greater than or equal to 10 fold between the Ki in the presence of SAM and the Ki in the presence of MTA)”.

With `Cc1ncoc1COc1ccc2c(c1C)CCN(C[C@@H](O)CNC(=O)c1cc(NC3COC3)nc(N3CCCCC3)n1)C2` [Compound 391, N-[(2S)-2-hydroxy-3-{5-methyl-6-[(4-methyl-1,3-oxazol-5-yl)methoxy]-1,2,3,4-tetrahydroisoquinolin-2-yl}propyl]-6-[(oxetan-3-yl)amino]-2-(piperidin-1-yl)pyrimidine-4-carboxamide], the IC50 on PRMT5 [1] is 50 to 500 nM; in the test with HAP1 MTAP-deleted, less than 1000 nM; at PRMT5 [2] it was 50 to 500 nM; with HAP1 MTAP-intact, not below 10000 nM; at PRMT5 [3] it was not below 5000 nM. The “MTAP Intact/Deleted Ratio” value in the test with HAP1 MTAP-deleted is “A* (an IC50 ratio greater than or equal to 10 fold between the IC50 in the HAP1 MTAP-intact cell line and the HAP1 MTAP-deleted cell line)”. In addition, on PRMT5 [2], the “SAM/MTA Ratio” value was “A (a Ki ratio greater than or equal to 10 fold between the Ki in the presence of SAM and the Ki in the presence of MTA)”.

Regarding `Cc1ncoc1COc1ccc2c(c1)CCN(C[C@@H](O)CNC(=O)c1ccc(OC3CCN(Cc4ccccc4)CC3)cc1)C2` [Compound 392], the half-maximal inhibitory concentration (IC50) at PRMT5 [1] was 50 to 500 nM; in the test on HAP1 MTAP-deleted, less than 1000 nM; on PRMT5 [2] it was 50 to 500 nM; in the test on HAP1 MTAP-intact, less than 1000 nM; on PRMT5 [3], 500 to 5000 nM. Further, the “MTAP Intact/Deleted Ratio” value with HAP1 MTAP-deleted is “C* (an IC50 ratio of less than 3 fold between the IC50 in the HAP1 MTAP-intact cell line and the HAP1 MTAP-deleted cell line)”. For the same compound, the “SAM/MTA Ratio” value on PRMT5 [2] is “A (a Ki ratio greater than or equal to 10 fold between the Ki in the presence of SAM and the Ki in the presence of MTA)”.

Consider `Cc1c(OCc2cnco2)ccc2c1CCN(C[C@@H](O)CNC(=O)c1cc(NC3CCCC3)ncn1)C2` [Compound 393, 6-(cyclopentylamino)-N-[(2S)-2-hydroxy-3-{5-methyl-6-[(1,3-oxazol-5-yl)methoxy]-1,2,3,4-tetrahydroisoquinolin-2-yl}propyl]pyrimidine-4-carboxamide], for which the IC50 on PRMT5 [1] was 500 to 5000 nM; in the test on HAP1 MTAP-deleted, not below 10000 nM; on PRMT5 [2], 500 to 5000 nM; in the test on HAP1 MTAP-intact, not below 10000 nM; at PRMT5 [3], not below 5000 nM. Further, the “MTAP Intact/Deleted Ratio” value in the test with HAP1 MTAP-deleted was “C* (an IC50 ratio of less than 3 fold between the IC50 in the HAP1 MTAP-intact cell line and the HAP1 MTAP-deleted cell line)”. In addition, the “SAM/MTA Ratio” value on PRMT5 [2] was “A (a Ki ratio greater than or equal to 10 fold between the Ki in the presence of SAM and the Ki in the presence of MTA)”.

Regarding `CCN1CCN(c2cc(C(=O)NC[C@H](O)CN3CCc4c(ccc(OCc5ocnc5C)c4C)C3)cc(NC3CCC3)n2)CC1` [Compound 394, 2-(cyclobutylamino)-6-(4-ethylpiperazin-1-yl)-N-[(2S)-2-hydroxy-3-{5-methyl-6-[(4-methyl-1,3-oxazol-5-yl)methoxy]-1,2,3,4-tetrahydroisoquinolin-2-yl}propyl]pyridine-4-carboxamide], the IC50 at PRMT5 [1] was 50 to 500 nM; in the test with HAP1 MTAP-deleted, less than 1000 nM; at PRMT5 [2] it was 50 to 500 nM; in the test with HAP1 MTAP-intact, not below 10000 nM; on PRMT5 [3], 500 to 5000 nM. Besides, the “MTAP Intact/Deleted Ratio” value in the test with HAP1 MTAP-deleted is “A* (an IC50 ratio greater than or equal to 10 fold between the IC50 in the HAP1 MTAP-intact cell line and the HAP1 MTAP-deleted cell line)”. Besides, the “SAM/MTA Ratio” value at PRMT5 [2] is “A (a Ki ratio greater than or equal to 10 fold between the Ki in the presence of SAM and the Ki in the presence of MTA)”.

Consider `O=C(NC[C@H](O)CN1CCc2cc(OCc3cnco3)ccc2C1)c1cc(NC2CCCCC2)ncn1` [Compound 395, (S)-6-(cyclohexylamino)-N-(2-hydroxy-3-(6-(oxazol-5-ylmethoxy)-3,4-dihydroisoquinolin-2(1H)-yl)propyl)pyrimidine-4-carboxamide], for which the concentration for half-maximal inhibition (IC50) is 500 to 5000 nM at PRMT5 [1]; 1000 to 10000 nM in the test on HAP1 MTAP-deleted; 50 to 500 nM on PRMT5 [2]; not below 10000 nM in the test on HAP1 MTAP-intact; not below 5000 nM at PRMT5 [3]. For the same compound, the “SAM/MTA Ratio” value at PRMT5 [2] is “A (a Ki ratio greater than or equal to 10 fold between the Ki in the presence of SAM and the Ki in the presence of MTA)”.

Regarding `Cc1ncoc1COc1ccc2c(c1)CCN(C[C@@H](O)CNC(=O)c1cc(NC3COC3)nc(N3CCN(C(C)(C)C)CC3)n1)C2` [Compound 396, 2-(4-tert-butylpiperazin-1-yl)-N-[(2S)-2-hydroxy-3-(6-[(4-methyl-1,3-oxazol-5-yl)methoxy]-1,2,3,4-tetrahydroisoquinolin-2-yl}propyl]-6-[(oxetan-3-yl)amino]pyrimidine-4-carboxamide], the 50% inhibitory concentration (IC50) is 50 to 500 nM at PRMT5 [1]; less than 1000 nM with HAP1 MTAP-deleted; 50 to 500 nM on PRMT5 [2]; 1000 to 10000 nM in the test with HAP1 MTAP-intact; 500 to 5000 nM at PRMT5 [3]. Also, the “MTAP Intact/Deleted Ratio” value with HAP1 MTAP-deleted was “C* (an IC50 ratio of less than 3 fold between the IC50 in the HAP1 MTAP-intact cell line and the HAP1 MTAP-deleted cell line)”. Moreover, the “SAM/MTA Ratio” value on PRMT5 [2] is “A (a Ki ratio greater than or equal to 10 fold between the Ki in the presence of SAM and the Ki in the presence of MTA)”.

For the compound `CCC(=O)N1CCN(c2cc(C(=O)NC[C@H](O)CN3CCc4cc(OCc5cnco5)ccc4C3)cc(NC3CCC3)n2)CC1` [Compound 397, (S)-2-(cyclobutylamino)-N-(2-hydroxy-3-(6-(oxazol-5-ylmethoxy)-3,4-dihydroisoquinolin-2(1H)-yl)propyl)-6-(4-propionylpiperazin-1-yl)isonicotinamide], the IC50 on PRMT5 [1] was 50 to 500 nM; in the test with HAP1 MTAP-deleted, less than 1000 nM; at PRMT5 [2], 50 to 500 nM; in the test on HAP1 MTAP-intact it was 1000 to 10000 nM; at PRMT5 [3], 500 to 5000 nM. Further, in the test on HAP1 MTAP-deleted, the “MTAP Intact/Deleted Ratio” value was “C* (an IC50 ratio of less than 3 fold between the IC50 in the HAP1 MTAP-intact cell line and the HAP1 MTAP-deleted cell line)”. The “SAM/MTA Ratio” value at PRMT5 [2] was “A (a Ki ratio greater than or equal to 10 fold between the Ki in the presence of SAM and the Ki in the presence of MTA)”.
